Each structure is given as a SMILES string. The source made the active and inactive calls. No cut-off for these calls is given here.

In assay [1] the target is eIF-2-alpha kinase GCN2 (Homo sapiens) (UniProt Q9P2K8). Put plainly: Inhibition of GCN2(h) at 10.0 µM in the Eurofins Kinase panel. The conditions noted are these: Compound concentration 10.0 uM.
Assay [2] deals with Calcium/calmodulin-dependent protein kinase type 1G (Homo sapiens) (UniProt Q96NX5). In words: Inhibition of CaMKIgamma(h) at 10.0 µM in the Eurofins Kinase panel. Particulars: Compound concentration 10.0 uM.
Assay [3] has as its target 3-hydroxy-3-methylglutaryl-coenzyme A reductase (Homo sapiens) (UniProt P04035). Put plainly: Inhibition of HMG-CoA Reductase at 10.0 µM in the Eurofins Panlabs Safety Screen. Particulars: Compound concentration 10.0 uM.
Assay [4] deals with GABA transporter (Rattus norvegicus) (UniProt P31647+P23978+P31646+P48056). In words: (§1) Inhibition of Transporter, GABA at 10.0 µM in the Eurofins Panlabs Safety Screen. The assay is classed as protein assay. The conditions noted are these: Compound concentration 10.0 uM.
Assay [5] deals with Calcium/calmodulin-dependent protein kinase type 1D (Homo sapiens) (UniProt Q8IU85). In words: Inhibition of CaMKIdelta(h) at 10.0 µM in the Eurofins Kinase panel. The conditions noted are these: Compound concentration 10.0 uM.
Assay [6] has as its target Tyrosine-protein kinase JAK2 (Homo sapiens) (UniProt O60674). In words: Inhibition of JAK2(h) at 10.0 µM in the Eurofins Kinase panel. The conditions noted are these: Compound concentration 10.0 uM.
For assay [7], the target named is Serine/threonine-protein kinase Sgk2 (Homo sapiens) (UniProt Q9HBY8). Put plainly: Inhibition of SGK2(h) at 10.0 µM in the Eurofins Kinase panel. Particulars: Compound concentration 10.0 uM.
Sequence of Serine/threonine-protein kinase Sgk2 (Homo sapiens) (Q9HBY8 whole entry): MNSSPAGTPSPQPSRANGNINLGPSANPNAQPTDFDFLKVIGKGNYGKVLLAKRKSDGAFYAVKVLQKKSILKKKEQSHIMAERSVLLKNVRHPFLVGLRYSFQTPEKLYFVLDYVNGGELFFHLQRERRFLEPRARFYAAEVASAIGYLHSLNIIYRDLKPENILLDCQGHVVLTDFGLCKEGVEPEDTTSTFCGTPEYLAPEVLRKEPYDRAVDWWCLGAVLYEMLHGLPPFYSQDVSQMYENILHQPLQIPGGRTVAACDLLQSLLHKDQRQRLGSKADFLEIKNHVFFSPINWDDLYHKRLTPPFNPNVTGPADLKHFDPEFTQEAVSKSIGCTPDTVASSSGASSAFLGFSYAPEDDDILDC
Assay [8] deals with Mitogen-activated protein kinase kinase kinase kinase 2 MAP4K2 (Homo sapiens) (UniProt Q12851). In words: Inhibition of GCK at 10.0 µM in the Eurofins Kinase panel. Particulars: Compound concentration 10.0 uM.
Sequence of Mitogen-activated protein kinase kinase kinase kinase 2 MAP4K2 (Homo sapiens) (Q12851 whole entry, looked up): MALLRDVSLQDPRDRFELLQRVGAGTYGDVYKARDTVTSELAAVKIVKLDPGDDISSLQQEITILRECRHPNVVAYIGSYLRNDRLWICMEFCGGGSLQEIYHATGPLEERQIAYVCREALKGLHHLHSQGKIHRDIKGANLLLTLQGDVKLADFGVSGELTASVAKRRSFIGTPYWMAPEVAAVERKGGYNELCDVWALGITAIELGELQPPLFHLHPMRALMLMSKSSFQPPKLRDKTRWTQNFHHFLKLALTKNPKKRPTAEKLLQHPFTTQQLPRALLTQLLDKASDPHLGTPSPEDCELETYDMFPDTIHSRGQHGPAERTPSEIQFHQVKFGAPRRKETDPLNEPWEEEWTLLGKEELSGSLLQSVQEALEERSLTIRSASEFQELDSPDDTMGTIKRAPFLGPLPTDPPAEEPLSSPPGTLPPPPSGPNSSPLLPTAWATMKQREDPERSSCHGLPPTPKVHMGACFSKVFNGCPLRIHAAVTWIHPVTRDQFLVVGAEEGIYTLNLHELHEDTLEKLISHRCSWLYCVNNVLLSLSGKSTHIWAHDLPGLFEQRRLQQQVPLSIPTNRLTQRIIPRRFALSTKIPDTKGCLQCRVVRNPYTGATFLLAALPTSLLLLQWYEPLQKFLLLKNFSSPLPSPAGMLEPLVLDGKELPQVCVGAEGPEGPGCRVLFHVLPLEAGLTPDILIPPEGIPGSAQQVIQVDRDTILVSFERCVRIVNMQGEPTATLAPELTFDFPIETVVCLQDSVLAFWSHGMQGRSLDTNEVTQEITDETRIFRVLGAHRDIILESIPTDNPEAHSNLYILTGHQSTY
Assay [9] addresses Methionine aminopeptidase 2 (Mus musculus, UniProt O08663). Put plainly: METAP2 biochemical assay (mouse).
Assay [10] addresses Methionine aminopeptidase 2 (Homo sapiens, UniProt P50579). Put plainly: Degradation in HT1080 cells (CE) Dmax (Capillary electrophoresis (CE)). Format: functional, cell-based. The conditions noted are these: HT-1080.
Assay [11] has as its target Ribosomal protein S6 kinase alpha-5 (Homo sapiens) (UniProt O75582). Put plainly: Inhibition of MSK1(h) at 10.0 µM in the Eurofins Kinase panel. Particulars: Compound concentration 10.0 uM.
Assay [12] has as its target Muscarinic acetylcholine receptor M5 (Homo sapiens, UniProt P08912). In words: GPCRScan assay: inhibition of M5. Also noted: radioligand conc. used [nm] 0.2 – 1.0, parental cells stable CHO.
Assay [13] concerns the target Tyrosine-protein kinase Yes (Homo sapiens) (UniProt P07947). Put plainly: Inhibition of Yes(h) at 10.0 µM in the Eurofins Kinase panel. Particulars: Compound concentration 10.0 uM.
Assay [14] has as its target Serine/threonine-protein kinase tousled-like 1 (Homo sapiens) (UniProt Q9UKI8). In words: Inhibition of TLK1(h) at 10.0 µM in the Eurofins Kinase panel. The conditions noted are these: Compound concentration 10.0 uM.
For assay [15], the target named is TRAF2 and NCK-interacting protein kinase (Homo sapiens) (UniProt Q9UKE5). Put plainly: Inhibition of TNIK(h) at 10.0 µM in the Eurofins Kinase panel. The conditions noted are these: Compound concentration 10.0 uM.
Sequence of TRAF2 and NCK-interacting protein kinase (Homo sapiens) (Q9UKE5 whole entry, looked up): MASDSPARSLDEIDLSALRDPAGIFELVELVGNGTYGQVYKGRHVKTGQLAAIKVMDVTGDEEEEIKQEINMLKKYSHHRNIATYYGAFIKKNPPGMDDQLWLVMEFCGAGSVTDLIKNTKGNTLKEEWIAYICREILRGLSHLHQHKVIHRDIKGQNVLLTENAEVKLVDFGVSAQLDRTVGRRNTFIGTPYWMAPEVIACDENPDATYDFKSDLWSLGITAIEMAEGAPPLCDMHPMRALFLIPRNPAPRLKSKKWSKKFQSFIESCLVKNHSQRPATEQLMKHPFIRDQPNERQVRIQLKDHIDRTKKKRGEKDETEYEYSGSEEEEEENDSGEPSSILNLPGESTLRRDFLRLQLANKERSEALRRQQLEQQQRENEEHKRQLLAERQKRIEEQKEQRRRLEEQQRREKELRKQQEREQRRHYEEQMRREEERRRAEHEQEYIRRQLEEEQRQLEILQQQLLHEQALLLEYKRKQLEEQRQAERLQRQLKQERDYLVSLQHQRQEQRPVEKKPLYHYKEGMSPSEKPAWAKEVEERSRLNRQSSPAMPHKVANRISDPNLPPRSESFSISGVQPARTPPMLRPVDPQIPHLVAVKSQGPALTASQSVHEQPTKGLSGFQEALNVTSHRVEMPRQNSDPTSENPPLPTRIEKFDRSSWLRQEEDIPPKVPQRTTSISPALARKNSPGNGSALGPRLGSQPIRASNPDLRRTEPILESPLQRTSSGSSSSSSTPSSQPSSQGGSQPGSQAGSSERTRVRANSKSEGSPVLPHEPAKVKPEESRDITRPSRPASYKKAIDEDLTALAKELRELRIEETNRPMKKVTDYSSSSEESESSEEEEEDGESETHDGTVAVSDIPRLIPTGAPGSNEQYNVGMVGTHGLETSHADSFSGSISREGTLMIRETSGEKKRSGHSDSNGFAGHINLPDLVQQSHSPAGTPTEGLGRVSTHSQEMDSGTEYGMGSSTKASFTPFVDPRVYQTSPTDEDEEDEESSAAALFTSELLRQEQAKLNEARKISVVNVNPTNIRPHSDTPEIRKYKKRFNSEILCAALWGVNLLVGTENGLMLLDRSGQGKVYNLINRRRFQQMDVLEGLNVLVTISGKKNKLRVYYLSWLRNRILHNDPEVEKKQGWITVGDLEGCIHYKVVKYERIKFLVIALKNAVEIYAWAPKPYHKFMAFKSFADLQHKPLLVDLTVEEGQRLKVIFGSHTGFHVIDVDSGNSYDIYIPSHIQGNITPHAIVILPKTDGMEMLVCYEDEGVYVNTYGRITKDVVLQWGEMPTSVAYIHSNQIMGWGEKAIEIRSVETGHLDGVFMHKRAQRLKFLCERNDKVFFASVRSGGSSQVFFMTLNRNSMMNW
Assay [16] deals with Serine/threonine-protein kinase Sgk1 (Homo sapiens) (UniProt O00141). In words: Inhibition of SGK(h) at 10.0 µM in the Eurofins Kinase panel. Particulars: Compound concentration 10.0 uM.
Assay [17] addresses Serine/threonine-protein kinase Nek5 (Homo sapiens) (UniProt Q6P3R8). In words: Inhibition of NEK5(h) at 10.0 µM in the Eurofins Kinase panel. Particulars: Compound concentration 10.0 uM.
Assay [18] deals with Casein kinase II subunit alpha' (Homo sapiens) (UniProt P19784). Put plainly: Inhibition of CK2alpha2(h) at 10.0 µM in the Eurofins Kinase panel. The conditions noted are these: Compound concentration 10.0 uM.
The target of assay [19] is Tyrosine-protein kinase Mer (Homo sapiens) (UniProt Q12866). Put plainly: Inhibition of Mer(h) at 10.0 µM in the Eurofins Kinase panel. Particulars: Compound concentration 10.0 uM.
The target in assay [20] is SNF-related serine/threonine-protein kinase (Homo sapiens) (UniProt Q9NRH2). Put plainly: Inhibition of SNRK(h) at 10.0 µM in the Eurofins Kinase panel. The conditions noted are these: Compound concentration 10.0 uM.
Assay [21] addresses Serine/threonine-protein kinase Nek1 (Homo sapiens) (UniProt Q96PY6). Put plainly: Inhibition of NEK1(h) at 10.0 µM in the Eurofins Kinase panel. The conditions noted are these: Compound concentration 10.0 uM.
Assay [22] addresses Tyrosine-protein kinase Fgr (Homo sapiens) (UniProt P09769). In words: Inhibition of Fgr(h) at 10.0 µM in the Eurofins Kinase panel. Particulars: Compound concentration 10.0 uM.
Assay [23] has as its target Sodium- and chloride-dependent GABA transporter 1 (Rattus norvegicus) (UniProt P23978). Described as §1. Particulars: Compound concentration 10.0 uM.
The target in assay [24] is PI3-kinase p110-delta/p85-alpha (Homo sapiens) (UniProt P27986+O00329). In words: Inhibition of PI3 Kinase (p110d/p85a)(h) at 10.0 µM in the Eurofins Kinase panel. The assay is classed as protein-complex assay. Particulars: Compound concentration 10.0 uM.
Assay [25] concerns the target STE20/SPS1-related proline-alanine-rich protein kinase (Homo sapiens) (UniProt Q9UEW8). Put plainly: Inhibition of STK39(h) at 10.0 µM in the Eurofins Kinase panel. Particulars: Compound concentration 10.0 uM.
The target in assay [26] is Serine/threonine-protein kinase 38 (Homo sapiens) (UniProt Q15208). Put plainly: Inhibition of NDR1(h) at 10.0 µM in the Eurofins Kinase panel. Particulars: Compound concentration 10.0 uM.
Sequence of Serine/threonine-protein kinase 38 (Homo sapiens) (Q15208 2-465 limits assumed): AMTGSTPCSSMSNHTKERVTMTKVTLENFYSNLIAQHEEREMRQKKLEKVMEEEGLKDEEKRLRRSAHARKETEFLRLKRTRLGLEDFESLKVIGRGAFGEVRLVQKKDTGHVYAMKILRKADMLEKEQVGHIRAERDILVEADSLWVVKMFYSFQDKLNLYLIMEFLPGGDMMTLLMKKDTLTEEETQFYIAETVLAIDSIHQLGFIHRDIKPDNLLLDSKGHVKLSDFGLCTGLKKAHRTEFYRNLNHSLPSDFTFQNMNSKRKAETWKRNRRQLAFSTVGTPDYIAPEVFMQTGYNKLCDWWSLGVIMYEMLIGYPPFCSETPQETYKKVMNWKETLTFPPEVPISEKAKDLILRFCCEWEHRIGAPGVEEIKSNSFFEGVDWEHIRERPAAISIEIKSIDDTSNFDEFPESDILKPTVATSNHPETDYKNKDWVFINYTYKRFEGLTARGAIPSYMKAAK
Assay [27] concerns the target MAP kinase-activated protein kinase 2 (Homo sapiens) (UniProt P49137). In words: Inhibition of MAPKAP-K2(h) at 10.0 µM in the Eurofins Kinase panel. Particulars: Compound concentration 10.0 uM.
In assay [28] the target is Tyrosine-protein kinase Lck (Homo sapiens) (UniProt P06239). Put plainly: Inhibition of Lck(h) activated at 10.0 µM in the Eurofins Kinase panel. The conditions noted are these: Compound concentration 10.0 uM.
The target in assay [29] is Ribosomal protein S6 kinase beta-1 (Homo sapiens) (UniProt P23443). Put plainly: Inhibition of p70S6K(h) at 10.0 µM in the Eurofins Kinase panel. Particulars: Compound concentration 10.0 uM.
The target of assay [30] is Testis-specific serine/threonine-protein kinase 4 (Homo sapiens) (UniProt Q6SA08). In words: Inhibition of TSSK4(h) at 10.0 µM in the Eurofins Kinase panel. The conditions noted are these: Compound concentration 10.0 uM.
Sequence of Testis-specific serine/threonine-protein kinase 4 (Homo sapiens) (Q6SA08 whole entry): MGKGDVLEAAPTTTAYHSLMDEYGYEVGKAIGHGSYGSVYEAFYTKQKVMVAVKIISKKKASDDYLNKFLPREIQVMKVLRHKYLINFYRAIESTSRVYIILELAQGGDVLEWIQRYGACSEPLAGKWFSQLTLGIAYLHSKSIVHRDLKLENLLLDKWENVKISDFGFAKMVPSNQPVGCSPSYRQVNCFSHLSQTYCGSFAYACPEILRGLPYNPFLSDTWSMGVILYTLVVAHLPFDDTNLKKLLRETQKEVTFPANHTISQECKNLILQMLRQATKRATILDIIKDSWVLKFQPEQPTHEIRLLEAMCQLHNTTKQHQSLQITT
The target in assay [31] is Protein kinase C gamma type (Homo sapiens) (UniProt P05129). In words: Inhibition of PKCgamma(h) at 10.0 µM in the Eurofins Kinase panel. The conditions noted are these: Compound concentration 10.0 uM.
The target of assay [32] is [Pyruvate dehydrogenase (acetyl-transferring)] kinase isozyme 2, mitochondrial (Homo sapiens) (UniProt Q15119). In words: Inhibition of PDHK2(h) at 10.0 µM in the Eurofins Kinase panel. Particulars: Compound concentration 10.0 uM.
The target in assay [33] is PAS domain-containing serine/threonine-protein kinase (Homo sapiens) (UniProt Q96RG2). In words: Inhibition of PASK(h) at 10.0 µM in the Eurofins Kinase panel. Particulars: Compound concentration 10.0 uM.
Assay [34] concerns the target Serine/threonine-protein kinase DCLK3 (Homo sapiens) (UniProt Q9C098). Put plainly: Inhibition of DCAMKL3(h) at 10.0 µM in the Eurofins Kinase panel. The conditions noted are these: Compound concentration 10.0 uM.
In assay [35] the target is Mitogen-activated protein kinase kinase kinase 21 (Homo sapiens) (UniProt Q5TCX8). In words: Inhibition of MLK4(h) at 10.0 µM in the Eurofins Kinase panel. Particulars: Compound concentration 10.0 uM.
Assay [36] has as its target Protein kinase C alpha type (Homo sapiens) (UniProt P17252). Put plainly: Inhibition of PKCalpha(h) at 10.0 µM in the Eurofins Kinase panel. The conditions noted are these: Compound concentration 10.0 uM.
Assay [37] concerns the target Dual specificity protein kinase CLK4 (Homo sapiens) (UniProt Q9HAZ1). In words: Inhibition of CLK4(h) at 10.0 µM in the Eurofins Kinase panel. Particulars: Compound concentration 10.0 uM.

Sequence of Muscarinic acetylcholine receptor M5 (P08912 whole entry): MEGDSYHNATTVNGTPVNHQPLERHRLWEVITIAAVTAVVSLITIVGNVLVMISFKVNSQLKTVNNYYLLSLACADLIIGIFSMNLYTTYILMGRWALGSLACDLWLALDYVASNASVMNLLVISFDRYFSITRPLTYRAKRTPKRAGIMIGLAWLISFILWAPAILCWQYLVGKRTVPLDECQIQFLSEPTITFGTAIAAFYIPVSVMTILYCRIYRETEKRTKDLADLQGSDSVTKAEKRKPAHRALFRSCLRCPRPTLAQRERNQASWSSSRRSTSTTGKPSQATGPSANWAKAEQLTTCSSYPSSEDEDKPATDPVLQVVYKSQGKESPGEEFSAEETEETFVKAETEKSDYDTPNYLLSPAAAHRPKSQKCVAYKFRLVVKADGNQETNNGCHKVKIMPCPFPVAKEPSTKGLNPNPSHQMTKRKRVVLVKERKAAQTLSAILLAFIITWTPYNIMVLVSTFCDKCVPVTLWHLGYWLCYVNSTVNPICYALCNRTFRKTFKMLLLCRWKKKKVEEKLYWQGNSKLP
Sequence of Serine/threonine-protein kinase tousled-like 1 (Homo sapiens) (Q9UKI8 whole entry): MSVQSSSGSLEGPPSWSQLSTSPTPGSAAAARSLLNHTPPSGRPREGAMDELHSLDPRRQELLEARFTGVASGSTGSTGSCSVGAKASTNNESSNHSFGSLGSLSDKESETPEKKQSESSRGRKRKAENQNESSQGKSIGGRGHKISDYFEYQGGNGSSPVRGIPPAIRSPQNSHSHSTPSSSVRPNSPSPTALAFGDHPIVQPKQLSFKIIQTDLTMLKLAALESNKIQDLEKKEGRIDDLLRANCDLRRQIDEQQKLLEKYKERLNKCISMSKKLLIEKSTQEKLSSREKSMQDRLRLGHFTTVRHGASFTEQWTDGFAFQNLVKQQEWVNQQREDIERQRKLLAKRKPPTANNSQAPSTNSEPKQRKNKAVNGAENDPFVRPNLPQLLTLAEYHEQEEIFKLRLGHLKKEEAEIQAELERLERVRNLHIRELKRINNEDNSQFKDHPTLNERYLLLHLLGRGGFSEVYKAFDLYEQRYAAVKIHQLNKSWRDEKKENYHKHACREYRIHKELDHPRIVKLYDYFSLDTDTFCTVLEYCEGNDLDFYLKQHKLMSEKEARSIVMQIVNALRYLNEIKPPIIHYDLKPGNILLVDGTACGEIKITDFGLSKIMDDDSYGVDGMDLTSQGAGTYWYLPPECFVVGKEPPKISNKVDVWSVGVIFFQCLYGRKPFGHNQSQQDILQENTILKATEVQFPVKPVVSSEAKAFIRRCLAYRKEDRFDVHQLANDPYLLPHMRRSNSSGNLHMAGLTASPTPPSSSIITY
Sequence of MAP kinase-activated protein kinase 2 (Homo sapiens) (P49137 whole entry, looked up): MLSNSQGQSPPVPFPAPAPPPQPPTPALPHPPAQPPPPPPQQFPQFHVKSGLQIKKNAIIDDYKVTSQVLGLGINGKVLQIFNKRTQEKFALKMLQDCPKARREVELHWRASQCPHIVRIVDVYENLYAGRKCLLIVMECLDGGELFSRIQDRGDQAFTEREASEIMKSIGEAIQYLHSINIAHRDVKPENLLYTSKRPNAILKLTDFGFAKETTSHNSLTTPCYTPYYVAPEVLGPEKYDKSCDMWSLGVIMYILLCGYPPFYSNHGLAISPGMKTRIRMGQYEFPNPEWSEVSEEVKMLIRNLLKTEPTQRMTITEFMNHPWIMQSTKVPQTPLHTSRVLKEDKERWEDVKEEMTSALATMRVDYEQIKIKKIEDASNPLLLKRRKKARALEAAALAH

For orientation: inhibition means the share of the control response that was lost under treatment. For orientation: IC50 means the midpoint of a concentration-inhibition curve. In general, Dmax refers to the largest share of the target that was removed. As to `O=C1CCC(N2Cc3cc(C4CCN(C(=O)CCCCCN5CCC(c6ccc(Oc7nn8cnnc8c8c7CCCC8)cc6)CC5)CC4)ccc3C2=O)C(=O)N1` (stereo not drawn), the inhibition in assay [1] came out at 17.2%; in assay [2] it was 15.7%; in assay [3], 12%; in assay [4], 5%; in assay [5], 11.4%; in assay [6], 21.8%. The inhibition in assay [7] amounted to 16.5%; in assay [8], 11.3%; in assay [11] it was 19.4%; in assay [13] it was 10.9%; in [14] it was 12.3%. The IC50 in [9] was 0.0059 µM (active). In assay [10], the Dmax was 88.5%. In addition, the Ki in assay [12] (read-out: Ki) is 0.568 µM; in assay [12] (read-out: pKi (converted)) it was 0.562 µM.
Turning to `O=C1NCCCC1N1Cc2cc(C3CCN(C(=O)CCCCCN4CCC(c5ccc(Oc6nn7cnnc7c7c6CCCC7)cc5)CC4)CC3)ccc2C1=O` (stereo not drawn), the inhibition in assay [15] is 12.5%; in assay [16] it was 10.8%; in assay [17] it was 17.5%; in assay [18], 10.9%; in assay [19], 17.9%; in assay [20] it was 10.6%. Besides, the inhibition in assay [21] is 11.4%; in assay [22], 10.1%; in assay [23] it was 8%; in [24] it was 11.6%; in assay [25] it was 11.5%; in assay [26], 11.2%. For the same molecule, the inhibition in [27] turned out to be 16.6%; in [28], 13.3%; in assay [29], 10.2%; in assay [30], 10.8%; in assay [31], 10.9%; in assay [32], 18.6%. Besides, the inhibition in [33] is 23.9%; in assay [34], 10.5%; in assay [35], 10.7%; in assay [36], 12.8%; in [37], 10.8%.
